Assay [1] has as its system store-operated calcium entry (SOCE) in HT-22 cells. Briefly: SOCE Ca2+ imaging in Fluo3-loaded HT-22 cells (Tg-induced store release, then Ca2+ entry). It counts as cell-based, mouse. The following applies: control HT-22 cells. On the procedure:
(§1) Cytosolic Ca^2+ imaging was assessed in the HT-22 cell culture with the fluorescent probe Fluo3-AM. […] The untread cells were regarded as the controls. […] Then, the cells were washed once with 1 mL of MLocke’s K5 buffer, and the 35 mm culture dishes were placed in the thermostatic plate at 37 °C (Warner Instrument Co., Hamden, CT, USA) of the Nikon Diaphot 300 inverted epifluorescence microscope (Tokyo, Japan) with an NCF Plan ELWD 40× objective (the pixel size of the images shown in this work was 0.2 μm). The images of the Fluo3-loaded cells were acquired with the Hamamatsu Orca-R^2 CCD camera (binning mode 2 × 2) with an excitation filter of 470 nm, a dichroic mirror of 510 nm with an emission filter of 520 nm, and a 0.3 s exposure time. […] The depletion of the Ca^2+ stores was triggered by adding 2 μM of the SERCA pump blocker Tg plus ethylene glycol tetraacetic acid (1 mM), in a Ca^2+-free Mlocke’s K5 buffer. Then, the SOCE was measured after the addition of 3 mM of CaCl2 to the Tg-containing medium. […] The activity of the RyR Ca^2+-leak channels was evaluated by incubation with 100 μM of the RyR antagonist ryanodine for 1 h in the HT-22 culture media. In all experiments with antagonists, we performed the respective dimethylsulfoxide vehicle controls.

Another assay has as its system HT-22 cells. Briefly: Mitochondrial membrane potential, TMRE assay. The following applies: 5 μM FCCP, TMRE-loaded HT-22 cells. It counts as cell-based, mouse. On the procedure:
Mitochondrial depolarization was monitored with the fluorescent dye TMRE, as previously described, with small changes. […] Then, the HT-22 culture dishes were placed in the thermostatic plate at 37 °C of the inverted epifluorescence microscope and the fluorescence kinetic was recorded at 556 nm excitation filter and a dichroic mirror of 580 nm with an emission filter of 590 nm and a time of exposure 0.01 s. To assess the level of the mitochondrial membrane depolarization, 5 μM of a potent mitochondrial oxidative phosphorylation uncoupler FCCP was added to the medium. The region of interest (ROI) tool of the HCImage software was used for the quantitative analysis. The average fluorescence intensity readings per pixel in the HT-22 cells were taken from several fields for a total number of 80 cells.

Another assay concerns HT22 cells. Briefly: Intracellular calcium response of Fluo3-loaded HT22 cells to cholinergic agonists. The assay is classed as cell-based, mouse. The following applies: for intracellular calcium response in the majority of the cells: Fluo3-loaded HT22 cells. On the procedure: as §1
Supplementary Figure S8. Representative kinetic traces of the average fluorescence intensity of Fluo3-loaded
HT22 cells (Ft/F0) recorded over time every 15 s intervals
Ca2+ entry mediated by cholinergic receptors. The data shown are the means ±SEM of n =16 cells.
(1 picture or pasted object on this page, not shown here)
Background: Calcium assays in cells follow changes in intracellular calcium, usually with a dye or a luminescent sensor.

Another assay deals with T1, RyR (Mus musculus, UniProt E9Q401).
T1 construct: incubation with 100 μM of the RyR antagonist ryanodine for 1 h in the HT-22 culture media; endogenous in cells; host or cells: HT-22 (mouse hippocampal cell line)
T1 sequence (E9Q401 whole entry): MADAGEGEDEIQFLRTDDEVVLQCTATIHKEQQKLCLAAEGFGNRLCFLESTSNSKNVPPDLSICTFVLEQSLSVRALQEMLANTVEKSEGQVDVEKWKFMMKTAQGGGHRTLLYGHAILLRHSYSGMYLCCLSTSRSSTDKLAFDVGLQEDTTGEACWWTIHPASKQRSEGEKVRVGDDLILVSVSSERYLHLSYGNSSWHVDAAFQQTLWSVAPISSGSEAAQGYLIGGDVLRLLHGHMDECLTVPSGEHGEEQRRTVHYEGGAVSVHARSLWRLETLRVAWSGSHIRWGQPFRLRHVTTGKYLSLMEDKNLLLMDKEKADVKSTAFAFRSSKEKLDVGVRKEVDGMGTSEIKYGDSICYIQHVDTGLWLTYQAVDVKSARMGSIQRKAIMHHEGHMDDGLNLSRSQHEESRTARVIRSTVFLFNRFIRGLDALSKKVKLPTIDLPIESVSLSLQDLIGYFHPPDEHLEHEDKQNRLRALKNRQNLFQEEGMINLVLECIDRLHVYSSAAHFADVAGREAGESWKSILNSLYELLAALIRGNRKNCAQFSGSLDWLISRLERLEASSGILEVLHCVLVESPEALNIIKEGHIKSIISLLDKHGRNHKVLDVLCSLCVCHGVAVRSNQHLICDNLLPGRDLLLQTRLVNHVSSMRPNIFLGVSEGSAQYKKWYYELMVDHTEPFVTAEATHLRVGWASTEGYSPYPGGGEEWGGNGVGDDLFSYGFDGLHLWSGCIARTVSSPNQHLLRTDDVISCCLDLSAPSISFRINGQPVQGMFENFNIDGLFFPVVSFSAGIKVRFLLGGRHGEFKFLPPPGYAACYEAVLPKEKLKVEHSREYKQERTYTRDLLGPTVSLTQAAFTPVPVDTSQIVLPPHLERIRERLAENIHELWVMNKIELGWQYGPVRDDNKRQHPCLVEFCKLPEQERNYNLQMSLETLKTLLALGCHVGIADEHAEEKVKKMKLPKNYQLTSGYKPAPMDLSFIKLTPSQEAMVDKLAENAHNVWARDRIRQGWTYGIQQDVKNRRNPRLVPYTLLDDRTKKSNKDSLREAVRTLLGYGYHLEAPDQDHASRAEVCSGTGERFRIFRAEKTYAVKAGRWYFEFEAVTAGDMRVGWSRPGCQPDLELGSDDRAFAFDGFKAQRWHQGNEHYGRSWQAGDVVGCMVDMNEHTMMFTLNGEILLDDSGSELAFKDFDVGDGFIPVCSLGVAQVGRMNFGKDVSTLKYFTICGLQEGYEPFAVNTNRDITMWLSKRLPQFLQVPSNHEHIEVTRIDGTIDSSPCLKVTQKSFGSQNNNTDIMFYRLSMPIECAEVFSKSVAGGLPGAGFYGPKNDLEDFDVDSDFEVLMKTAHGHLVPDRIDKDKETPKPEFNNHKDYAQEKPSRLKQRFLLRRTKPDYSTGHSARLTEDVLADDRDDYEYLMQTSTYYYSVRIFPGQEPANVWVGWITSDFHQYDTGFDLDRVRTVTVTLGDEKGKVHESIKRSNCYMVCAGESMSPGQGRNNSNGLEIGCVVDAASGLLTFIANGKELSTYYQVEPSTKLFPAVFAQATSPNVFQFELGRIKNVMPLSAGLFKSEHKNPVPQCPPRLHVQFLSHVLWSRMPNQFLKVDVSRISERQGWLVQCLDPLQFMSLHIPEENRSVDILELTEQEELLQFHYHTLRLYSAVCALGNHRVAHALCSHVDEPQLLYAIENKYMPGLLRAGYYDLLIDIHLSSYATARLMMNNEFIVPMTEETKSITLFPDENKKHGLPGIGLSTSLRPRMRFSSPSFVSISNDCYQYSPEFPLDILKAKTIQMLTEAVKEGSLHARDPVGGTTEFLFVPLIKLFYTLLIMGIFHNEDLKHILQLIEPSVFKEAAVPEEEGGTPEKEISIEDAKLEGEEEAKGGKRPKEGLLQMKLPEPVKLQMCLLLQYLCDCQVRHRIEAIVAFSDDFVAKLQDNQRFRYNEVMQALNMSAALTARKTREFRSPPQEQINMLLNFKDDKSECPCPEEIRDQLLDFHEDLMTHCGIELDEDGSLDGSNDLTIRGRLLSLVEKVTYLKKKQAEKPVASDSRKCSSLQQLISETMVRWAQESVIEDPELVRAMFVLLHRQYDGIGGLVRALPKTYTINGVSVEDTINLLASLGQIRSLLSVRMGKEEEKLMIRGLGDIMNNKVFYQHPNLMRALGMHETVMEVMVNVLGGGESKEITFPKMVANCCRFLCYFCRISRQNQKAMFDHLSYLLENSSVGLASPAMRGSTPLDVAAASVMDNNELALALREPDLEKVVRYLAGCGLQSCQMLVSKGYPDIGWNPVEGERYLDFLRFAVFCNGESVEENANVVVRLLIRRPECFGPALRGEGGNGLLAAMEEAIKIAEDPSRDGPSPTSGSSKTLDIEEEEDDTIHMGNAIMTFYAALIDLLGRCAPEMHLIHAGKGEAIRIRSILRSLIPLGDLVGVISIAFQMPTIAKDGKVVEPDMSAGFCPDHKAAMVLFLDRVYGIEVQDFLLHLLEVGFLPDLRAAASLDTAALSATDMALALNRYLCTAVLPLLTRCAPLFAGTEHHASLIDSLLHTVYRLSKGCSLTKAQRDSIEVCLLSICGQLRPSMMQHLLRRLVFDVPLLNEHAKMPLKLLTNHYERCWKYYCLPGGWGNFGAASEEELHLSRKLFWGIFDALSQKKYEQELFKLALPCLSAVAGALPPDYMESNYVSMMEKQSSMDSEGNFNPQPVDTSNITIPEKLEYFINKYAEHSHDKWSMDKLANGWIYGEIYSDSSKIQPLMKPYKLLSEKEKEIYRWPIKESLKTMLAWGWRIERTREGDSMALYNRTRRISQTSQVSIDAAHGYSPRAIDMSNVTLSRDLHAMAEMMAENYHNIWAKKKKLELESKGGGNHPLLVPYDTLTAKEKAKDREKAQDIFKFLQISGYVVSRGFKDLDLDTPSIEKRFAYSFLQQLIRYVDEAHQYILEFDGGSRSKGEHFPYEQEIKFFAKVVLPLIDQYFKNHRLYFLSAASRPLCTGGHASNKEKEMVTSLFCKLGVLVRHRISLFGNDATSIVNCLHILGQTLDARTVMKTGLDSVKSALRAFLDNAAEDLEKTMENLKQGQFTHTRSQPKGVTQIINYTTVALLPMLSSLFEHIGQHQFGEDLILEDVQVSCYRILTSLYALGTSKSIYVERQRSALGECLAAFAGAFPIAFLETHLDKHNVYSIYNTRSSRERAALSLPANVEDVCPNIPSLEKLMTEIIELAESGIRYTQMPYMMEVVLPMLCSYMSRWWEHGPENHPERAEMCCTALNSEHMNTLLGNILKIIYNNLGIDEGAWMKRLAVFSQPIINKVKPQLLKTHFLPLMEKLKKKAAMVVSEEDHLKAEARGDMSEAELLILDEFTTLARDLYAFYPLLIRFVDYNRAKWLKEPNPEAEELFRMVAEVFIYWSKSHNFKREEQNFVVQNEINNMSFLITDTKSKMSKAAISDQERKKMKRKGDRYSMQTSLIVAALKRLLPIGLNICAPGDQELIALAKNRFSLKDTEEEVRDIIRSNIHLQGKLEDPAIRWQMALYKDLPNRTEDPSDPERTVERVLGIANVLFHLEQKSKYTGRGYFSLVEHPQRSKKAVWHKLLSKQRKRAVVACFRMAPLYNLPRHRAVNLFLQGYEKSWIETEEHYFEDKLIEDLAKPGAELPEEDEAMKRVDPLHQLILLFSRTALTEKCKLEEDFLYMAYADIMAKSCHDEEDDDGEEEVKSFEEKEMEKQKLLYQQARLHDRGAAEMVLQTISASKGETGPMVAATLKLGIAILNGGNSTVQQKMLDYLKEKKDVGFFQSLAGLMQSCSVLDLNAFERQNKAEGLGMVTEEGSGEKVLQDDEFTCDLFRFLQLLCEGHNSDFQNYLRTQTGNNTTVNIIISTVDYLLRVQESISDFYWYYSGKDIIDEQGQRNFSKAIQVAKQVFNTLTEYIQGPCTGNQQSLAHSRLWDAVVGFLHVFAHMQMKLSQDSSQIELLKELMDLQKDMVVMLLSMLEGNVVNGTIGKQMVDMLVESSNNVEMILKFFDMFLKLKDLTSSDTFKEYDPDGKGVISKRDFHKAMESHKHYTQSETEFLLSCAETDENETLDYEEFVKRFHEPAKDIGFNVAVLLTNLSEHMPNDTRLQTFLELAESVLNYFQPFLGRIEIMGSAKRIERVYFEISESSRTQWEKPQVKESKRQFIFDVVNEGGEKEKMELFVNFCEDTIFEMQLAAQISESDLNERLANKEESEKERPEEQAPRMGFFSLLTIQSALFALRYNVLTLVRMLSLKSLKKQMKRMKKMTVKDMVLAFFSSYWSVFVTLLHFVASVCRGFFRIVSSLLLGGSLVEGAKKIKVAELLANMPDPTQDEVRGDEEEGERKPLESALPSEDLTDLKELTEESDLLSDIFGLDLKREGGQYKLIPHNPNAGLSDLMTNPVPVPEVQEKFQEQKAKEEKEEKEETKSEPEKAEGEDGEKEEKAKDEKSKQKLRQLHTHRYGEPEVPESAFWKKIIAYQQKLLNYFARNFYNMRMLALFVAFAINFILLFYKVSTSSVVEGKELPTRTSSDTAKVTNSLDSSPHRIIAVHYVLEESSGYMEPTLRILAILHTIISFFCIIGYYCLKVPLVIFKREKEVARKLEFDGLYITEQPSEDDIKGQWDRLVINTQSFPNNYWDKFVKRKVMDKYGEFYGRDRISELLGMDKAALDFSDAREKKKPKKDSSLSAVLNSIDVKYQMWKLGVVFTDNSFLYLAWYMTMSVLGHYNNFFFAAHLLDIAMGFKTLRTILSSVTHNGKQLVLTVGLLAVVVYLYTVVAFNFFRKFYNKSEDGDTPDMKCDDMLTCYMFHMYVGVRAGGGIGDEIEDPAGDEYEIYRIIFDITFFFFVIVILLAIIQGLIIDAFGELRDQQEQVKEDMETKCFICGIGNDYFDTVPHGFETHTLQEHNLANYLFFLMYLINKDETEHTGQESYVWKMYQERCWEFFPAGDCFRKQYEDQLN
Briefly: Tg-induced Ca2+ release from stores in Fluo3-loaded HT-22 cells with the RyR antagonist ryanodine. It counts as cell-based. The following applies: 100 μM ryanodine, 1 h, 37 °C, control HT-22 cells; 2 μM Tg. On the procedure:
as §1

With `Cc1nnsc1C(=O)Nc1ccc(-n2nc(C(F)(F)F)cc2C(F)(F)F)cc1` [BTP2, N-[4-[3,5-bis(trifluoromethyl)pyrazol-1-yl]phenyl]-4-methylthiadiazole-5-carboxamide], in assay [1] (3 μM BTP2, 15 min), the “Ca2+ released from the stores after addition of Tg versus control” value is “no significative difference”. Also, the “decrease of Ca2+ entry through the plasma membrane relative to control without BTP2” value in assay [1] (3 μM BTP2, 15 min preincubation, 37 °C, mean ± SEM, n > 80 cells) came to 71 ± 8%.

Regarding `N#CC(C#N)=NNc1ccc(OC(F)(F)F)cc1` [FCCP, trifluoromethoxy carbonylcyanide phenylhydrazone], in the assay with HT-22 cells, the “mitochondria membrane potential after addition (positive control of depolarization)” value was “large decrease”.

Consider `CC(=O)OCC[N+](C)(C)C` [acetylcholine], for which the “fraction of HT22 cells showing intracellular calcium concentration peaks” value with HT22 cells (100 μM acetylcholine, Fluo3-loaded cells) was “less than 25%”. In the assay with HT22 cells, the “intracellular calcium response in the majority of the cells” value was “almost negligible”.

For the compound `C[N+](C)(C)CCOC(N)=O` [carbachol], the “intracellular calcium response in the majority of the cells” value in the assay with HT22 cells is reported as “almost negligible”.

Take ryanodine: the “increase of ER Ca2+ content (Tg-induced Ca2+ release from stores) versus control without ryanodine” value on RyR is “about 2.2 fold”.
